Data reported in publication PMC223355 (BMC Biochemistry, 2003).
Like-named read-outs stand apart in the source and are kept apart here.

What was measured:
[1] = molecular target: T1, recombinant human kynureninase (Homo sapiens, UniProt Q16719); details: cited from earlier work
T1 sequence (Q16719 1-465): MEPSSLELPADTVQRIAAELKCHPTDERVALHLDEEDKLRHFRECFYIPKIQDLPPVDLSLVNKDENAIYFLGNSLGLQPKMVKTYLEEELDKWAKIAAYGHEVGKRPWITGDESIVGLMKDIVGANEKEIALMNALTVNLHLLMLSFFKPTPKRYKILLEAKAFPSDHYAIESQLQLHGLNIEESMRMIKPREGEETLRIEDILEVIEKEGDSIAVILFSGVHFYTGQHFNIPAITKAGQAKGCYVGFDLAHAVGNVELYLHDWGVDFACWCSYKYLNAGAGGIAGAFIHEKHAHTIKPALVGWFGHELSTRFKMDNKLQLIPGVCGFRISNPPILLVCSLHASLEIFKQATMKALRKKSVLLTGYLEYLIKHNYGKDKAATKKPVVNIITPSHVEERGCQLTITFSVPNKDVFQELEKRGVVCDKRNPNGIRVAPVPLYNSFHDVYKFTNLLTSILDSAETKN

[2] = molecular target: T1, recombinant human kynureninase; assay: Inhibition / kinetics of recombinant human kynureninase; assay type: biochemical; details: as substrate of the human enzyme
kynureninase [3] = molecular target: T2, kynureninase (Pseudomonas fluorescens, UniProt P83788); details: as substrate of the Pseudomonas enzyme; cited from earlier work
T2 sequence (P83788 1-416): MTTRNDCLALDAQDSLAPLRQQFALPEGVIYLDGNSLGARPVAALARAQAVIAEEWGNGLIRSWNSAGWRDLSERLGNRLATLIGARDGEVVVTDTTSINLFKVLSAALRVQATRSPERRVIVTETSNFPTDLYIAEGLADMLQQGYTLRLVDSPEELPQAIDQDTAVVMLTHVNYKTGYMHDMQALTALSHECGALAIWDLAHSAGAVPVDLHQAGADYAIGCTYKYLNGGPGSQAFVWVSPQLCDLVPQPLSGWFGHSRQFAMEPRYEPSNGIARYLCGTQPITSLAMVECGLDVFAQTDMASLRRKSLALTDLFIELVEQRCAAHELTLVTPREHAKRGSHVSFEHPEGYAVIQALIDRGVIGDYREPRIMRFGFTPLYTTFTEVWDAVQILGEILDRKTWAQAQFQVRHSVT

rat hepatic kynureninase = molecular target: T3, rat hepatic kynureninase (Rattus norvegicus, UniProt P70712); details: cited from earlier work
T3 sequence (P70712 1-464): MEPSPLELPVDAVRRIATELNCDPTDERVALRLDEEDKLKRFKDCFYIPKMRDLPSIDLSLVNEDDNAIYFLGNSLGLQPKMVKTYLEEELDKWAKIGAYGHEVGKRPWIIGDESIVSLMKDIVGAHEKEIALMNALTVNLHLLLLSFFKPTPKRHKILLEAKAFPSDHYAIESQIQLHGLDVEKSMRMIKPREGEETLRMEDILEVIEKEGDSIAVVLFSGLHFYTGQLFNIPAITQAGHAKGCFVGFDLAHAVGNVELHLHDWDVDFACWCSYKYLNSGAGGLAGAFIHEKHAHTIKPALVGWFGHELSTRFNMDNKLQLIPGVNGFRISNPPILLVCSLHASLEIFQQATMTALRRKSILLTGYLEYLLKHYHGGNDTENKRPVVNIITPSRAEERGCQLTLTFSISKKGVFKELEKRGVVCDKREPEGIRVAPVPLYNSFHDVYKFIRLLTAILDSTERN

kynureninase [4] = molecular target: T2, kynureninase; assay: Inhibition / kinetics of tryptophan-induced bacterial kynureninase; assay type: biochemical

Nc1ccccc1C(=O)CC(N)C(=O)O [kynurenine D-enantiomer, kynurenine]
Ki ([1]; human enzyme (by context)): 12 µM

Nc1ccccc1C(=O)CC(N)C(=O)O (centres unmarked) [kynurenine]
substrate activity [2]: no appreciable substrate activity

Nc1ccccc1C(=O)C[C@H](N)C(=O)O [L-kynurenine]
Km (kynureninase [3]): 44.2 µM
Km (rat hepatic kynureninase; as substrate of the rat enzyme, reported values, no reference given): 500 µM

Nc1c(O)cc(O)cc1C(=O)CCC(=O)O [dihydroxydesamino derivative, 3,5-dihydroxydesaminokynurenine]
Ki (rat hepatic kynureninase; rat enzyme (both mammalian enzymes), earlier report): ~0.25 µM
Ki ([1]; recombinant human enzyme (both mammalian enzymes), earlier report): ~0.25 µM

Nc1ccccc1C(=O)CCC(=O)O [desaminokynurenine]
Ki (kynureninase [4]; bacterial enzyme, unpublished results of the authors): 12 ± 3.1 µM
type of inhibition (kynureninase [4]; bacterial kynureninase, Lineweaver-Burk and Dixon plots): mixed inhibitor
